# Legend:
# DDR1 = DDR1 (Homo sapiens (Human), UniProt Q08345); assay: DDR1 binding assay (LanthaScreen Europium Kinase Binding assay); conditions: 5 nM DDR1, 20 nM Kinase Tracer 178, 1 h at rt; Ki from IC50 by Cheng-Prusoff; read-out: Ki DDR1
# Description: (§1) DDR1 and DDR2 binding assays were performed using Life Technologies LanthaScreen™ Europium Kinase Binding assay. The compounds were incubated with 5 nM DDR1 (Carna Biosciences) or 5 nM DDR2 (Life Technologies) for 1 h at rt in white 384-well OptiPlate (PerkinElmer), containing 20 nM or 10 nM Kinase Tracer 178 respectively and 2 nM Europium labelled anti-GST antibody (Life Technologies) in assay buffer (50 mM HEPES pH 7.5, 10 mM MgCI2, 1 mM EGTA and 0.01% BRIJ35). The ratio of fluorescence emission 665 nm/615 nm after excitation at 340 nm was obtained using the Tecan Spark 20M plate reader. IC50 values were determined in GraphPad Prism 7.0 software, using 4 parameter model: log(inhibitor) vs. response. IC50 values were converted in Ki using the Cheng-Prusoff equation (Ki=IC50/(1+[Tracer]/Kd).
# DDR2 = DDR2 (Homo sapiens (Human), UniProt Q16832); assay: DDR2 binding assay (LanthaScreen Europium Kinase Binding assay); conditions: 5 nM DDR2, 10 nM Kinase Tracer 178, 1 h at rt; Ki from IC50 by Cheng-Prusoff; read-out: Ki DDR2
# Description: as §1
# Sequence of DDR2 (Q16832 22-855): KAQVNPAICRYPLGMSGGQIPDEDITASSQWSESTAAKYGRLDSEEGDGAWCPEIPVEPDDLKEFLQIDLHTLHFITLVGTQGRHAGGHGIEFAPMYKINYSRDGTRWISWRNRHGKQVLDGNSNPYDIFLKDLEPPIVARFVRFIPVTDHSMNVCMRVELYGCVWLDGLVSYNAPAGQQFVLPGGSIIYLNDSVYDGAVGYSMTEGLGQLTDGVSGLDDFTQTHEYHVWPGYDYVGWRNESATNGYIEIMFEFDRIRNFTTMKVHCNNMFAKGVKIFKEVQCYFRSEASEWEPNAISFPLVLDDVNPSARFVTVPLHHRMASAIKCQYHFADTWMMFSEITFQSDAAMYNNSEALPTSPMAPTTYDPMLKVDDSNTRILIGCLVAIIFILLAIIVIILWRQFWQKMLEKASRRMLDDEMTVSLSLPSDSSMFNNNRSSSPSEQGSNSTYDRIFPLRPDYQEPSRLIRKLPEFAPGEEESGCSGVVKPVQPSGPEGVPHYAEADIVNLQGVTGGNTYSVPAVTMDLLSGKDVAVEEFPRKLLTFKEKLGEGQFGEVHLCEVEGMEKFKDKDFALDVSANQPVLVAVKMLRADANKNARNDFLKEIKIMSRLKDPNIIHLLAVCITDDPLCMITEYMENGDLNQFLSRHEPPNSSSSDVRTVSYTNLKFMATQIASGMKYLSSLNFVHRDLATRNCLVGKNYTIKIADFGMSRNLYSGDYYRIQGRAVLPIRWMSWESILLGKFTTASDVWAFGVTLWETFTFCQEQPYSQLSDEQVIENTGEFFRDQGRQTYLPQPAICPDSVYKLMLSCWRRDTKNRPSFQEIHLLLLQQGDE
# Sequence of DDR1 (Q08345 19-913): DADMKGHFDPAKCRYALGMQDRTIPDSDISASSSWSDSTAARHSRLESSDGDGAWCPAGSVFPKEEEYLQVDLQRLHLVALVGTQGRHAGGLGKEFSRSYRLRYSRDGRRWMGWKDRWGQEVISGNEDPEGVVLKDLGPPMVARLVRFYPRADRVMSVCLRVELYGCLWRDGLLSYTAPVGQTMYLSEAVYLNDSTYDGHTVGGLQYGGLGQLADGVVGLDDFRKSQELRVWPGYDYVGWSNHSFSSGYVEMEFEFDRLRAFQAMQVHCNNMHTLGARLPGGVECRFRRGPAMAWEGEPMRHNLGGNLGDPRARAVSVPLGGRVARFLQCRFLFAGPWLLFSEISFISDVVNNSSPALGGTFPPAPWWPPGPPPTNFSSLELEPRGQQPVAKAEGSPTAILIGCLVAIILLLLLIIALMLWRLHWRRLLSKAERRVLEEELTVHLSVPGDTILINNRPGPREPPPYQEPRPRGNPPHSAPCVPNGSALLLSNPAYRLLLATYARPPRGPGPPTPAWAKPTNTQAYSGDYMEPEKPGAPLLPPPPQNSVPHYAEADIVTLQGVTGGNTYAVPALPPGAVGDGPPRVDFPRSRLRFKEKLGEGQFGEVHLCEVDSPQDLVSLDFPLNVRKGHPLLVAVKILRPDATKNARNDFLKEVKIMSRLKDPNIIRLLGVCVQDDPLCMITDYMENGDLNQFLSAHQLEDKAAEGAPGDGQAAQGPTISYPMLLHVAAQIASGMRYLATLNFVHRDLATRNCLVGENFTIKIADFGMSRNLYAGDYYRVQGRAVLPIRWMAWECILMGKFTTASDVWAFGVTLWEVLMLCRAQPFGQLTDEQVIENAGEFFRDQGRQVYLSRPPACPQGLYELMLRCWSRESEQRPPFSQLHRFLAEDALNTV
Ki (DDR1) [nM],Ki (DDR2) [nM],SMILES
< 5,5 to 25,"COc1ccc(C(F)(F)F)cc1NC(=O)c1ccc(C)c(OC2CN(c3cnn4ccncc34)C2)c1 [Example 153, N-(2-methoxy-5-(trifluoromethyl)phenyl)-4-methyl-3-((1-(pyrazolo[1,5-a]pyrazin-3-yl)azetidin-3-yl)oxy)benzamide]"
< 5,< 5,"Cc1ccc(C(=O)Nc2cncc(OC(F)(F)F)c2)cc1OC1CN(c2cnn3ccncc23)C1 [Example 157, 4-methyl-3-((1-(pyrazolo[1,5-a]pyrazin-3-yl)azetidin-3-yl)oxy)-N-(5-(trifluoromethoxy)pyridin-3-yl)benzamide]"
< 5,5 to 25,"Cc1ccc(C(=O)Nc2cc(C(F)(F)F)ccc2Cl)cc1OC1CN(c2cnn3ccncc23)C1 [Example 160, N-(2-chloro-5-(trifluoromethyl)phenyl)-4-methyl-3-((1-(pyrazolo[1,5-a]pyrazin-3-yl)azetidin-3-yl)oxy)benzamide]"
< 5,< 5,"Cc1ccc(C(=O)Nc2cccc(OC(F)(F)F)c2)cc1OC1CN(c2cnn3ccncc23)C1 [Example 161, 4-methyl-3-((1-(pyrazolo[1,5-a]pyrazin-3-yl)azetidin-3-yl)oxy)-N-(3-(trifluoromethoxy)phenyl)benzamide]"
< 5,< 5,"Cc1ccc(C(=O)Nc2cc(F)cc(C(F)(F)F)c2)cc1OC1CN(c2cnn3ccncc23)C1 [Example 162, N-(3-fluoro-5-(trifluoromethyl)phenyl)-4-methyl-3-((1-(pyrazolo[1,5-a]pyrazin-3-yl)azetidin-3-yl)oxy)benzamide]"
< 5,5 to 25,"Cc1ccc(C(=O)Nc2cncc(C(F)(F)F)c2)cc1OC1CN(c2cncc(C(F)F)c2)C1 [Example 165, 3-((1-(5-(difluoromethyl)pyridin-3-yl)azetidin-3-yl)oxy)-4-methyl-N-(5-(trifluoromethyl)pyridin-3-yl)benzamide]"
< 5,5 to 25,"Cc1ccn2ncc(N3CC(Oc4cc(C(=O)Nc5cncc(C(F)(F)F)c5)ccc4C)C3)c2n1 [Example 167, 4-methyl-3-((1-(5-methylpyrazolo[1,5-a]pyrimidin-3-yl)azetidin-3-yl)oxy)-N-(5-(trifluoromethyl)pyridin-3-yl)benzamide]"
< 5,< 5,"Cc1ccc(C(=O)Nc2cncc(C(F)(F)F)c2)cc1OC1CN(c2cnn3ccccc23)C1 [Example 168, 4-methyl-3-((1-(pyrazolo[1,5-a]pyridin-3-yl)azetidin-3-yl)oxy)-N-(5-(trifluoromethyl)pyridin-3-yl)benzamide]"
< 5,5 to 25,"Cc1ccc(C(=O)Nc2cncc(C(F)(F)F)c2)cc1OC1CN(c2cncc3c2cnn3C)C1 [Example 169, 4-methyl-3-((1-(1-methyl-1H-pyrazolo[3,4-c]pyridin-4-yl)azetidin-3-yl)oxy)-N-(5-(trifluoromethyl)pyridin-3-yl)benzamide]"
< 5,< 5,"Cc1ccc(C(=O)Nc2cncc(C(F)(F)F)c2)cc1CC1CN(c2cnn3ccncc23)C1 [Example 171, 4-methyl-3-((1-(pyrazolo[1,5-a]pyrazin-3-yl)azetidin-3-yl)methyl)-N-(5-(trifluoromethyl)pyridin-3-yl)benzamide]"
< 5,5 to 25,"Cc1ccc(C(=O)Nc2cncc(C(F)(F)F)c2)cc1C(C)C1CN(c2cnn3ccncc23)C1 (centres unmarked) [Example 172, 4-methyl-3-(1-(1-(pyrazolo[1,5-a]pyrazin-3-yl)azetidin-3-yl)ethyl)-N-(5-(trifluoromethyl)pyridin-3-yl)benzamide]"
< 5,< 5,"Cc1ccc(C(=O)Nc2cncc(C(F)(F)F)c2)cc1SC1CN(c2cnn3ccncc23)C1 [Example 178, 4-methyl-3-((1-(pyrazolo[1,5-a]pyrazin-3-yl)azetidin-3-yl)thio)-N-(5-(trifluoromethyl)pyridin-3-yl)benzamide]"
5 to 25,25 to 100,"Cc1ccc(C(=O)Nc2cncc(C(F)(F)F)c2)cc1S(=O)(=O)C1CN(c2cnn3ccncc23)C1 [Example 179, 4-methyl-3-((1-(pyrazolo[1,5-a]pyrazin-3-yl)azetidin-3-yl)sulfonyl)-N-(5-(trifluoromethyl)pyridin-3-yl)benzamide]"
< 5,5 to 25,"O=C(Nc1cncc(C(F)(F)F)c1)c1ccc(OC(F)F)c(NC2CN(c3cnn4ccncc34)C2)c1 [Example 181, 4-(difluoromethoxy)-3-((1-(pyrazolo[1,5-a]pyrazin-3-yl)azetidin-3-yl)amino)-N-(5-(trifluoromethyl)pyridin-3-yl)benzamide]"
< 5,< 5,"O=C(Nc1cncc(C(F)(F)F)c1)c1ccc(OC(F)F)c(OC2CN(c3cnn4ccncc34)C2)c1 [Example 182, 4-(difluoromethoxy)-3-((1-(pyrazolo[1,5-a]pyrazin-3-yl)azetidin-3-yl)oxy)-N-(5-(trifluoromethyl)pyridin-3-yl)benzamide]"
< 5,5 to 25,"COc1ccc(C(=O)Nc2cncc(C(F)(F)F)c2)cc1NC1CN(c2cnn3ccncc23)C1 [Example 183, 4-methoxy-3-((1-(pyrazolo[1,5-a]pyrazin-3-yl)azetidin-3-yl)amino)-N-(5-(trifluoromethyl)pyridin-3-yl)benzamide]"

# The next lines start with the compound.
SMILES,Ki (DDR1) [nM],Ki (DDR2) [nM]
"Cc1ccc(C(=O)Nc2cc(C(C)(C)C)n(C)n2)cc1OC1CN(c2cnn3ccncc23)C1 [Example 154, N-(5-(tert-butyl)-1-methyl-1H-pyrazol-3-yl)-4-methyl-3-((1-(pyrazolo[1,5-a]pyrazin-3-yl)azetidin-3-yl)oxy)benzamide]",< 5,< 5
"Cc1ccc(C(=O)Nc2cc(C(C)(C)C)on2)cc1OC1CN(c2cnn3ccncc23)C1 [Example 155, N-(5-(tert-butyl)isoxazol-3-yl)-4-methyl-3-((1-(pyrazolo[1,5-a]pyrazin-3-yl)azetidin-3-yl)oxy)benzamide]",< 5,< 5
"Cc1ccc(C(=O)Nc2cc(C(C)(C)C)n(C)n2)cc1NC1CN(c2cnn3ccncc23)C1 [Example 156, N-(5-(tert-butyl)-1-methyl-1H-pyrazol-3-yl)-4-methyl-3-((1-(pyrazolo[1,5-a]pyrazin-3-yl)azetidin-3-yl)amino)benzamide]",< 5,5 to 25
"COc1ccc(OC(F)(F)F)cc1NC(=O)c1ccc(C)c(OC2CN(c3cnn4ccncc34)C2)c1 [Example 158, N-(2-methoxy-5-(trifluoromethoxy)phenyl)-4-methyl-3-((1-(pyrazolo[1,5-a]pyrazin-3-yl)azetidin-3-yl)oxy)benzamide]",< 5,5 to 25
"Cc1ccc(OC(F)(F)F)cc1NC(=O)c1ccc(C)c(OC2CN(c3cnn4ccncc34)C2)c1 [Example 159, 4-methyl-N-(2-methyl-5-(trifluoromethoxy)phenyl)-3-((1-(pyrazolo[1,5-a]pyrazin-3-yl)azetidin-3-yl)oxy)benzamide]",< 5,5 to 25
"Cc1ccc(C(=O)Nc2cc(C(C)(C)C)nn2C)cc1OC1CN(c2cnn3ccncc23)C1 [Example 163, N-(3-(tert-butyl)-1-methyl-1H-pyrazol-5-yl)-4-methyl-3-((1-(pyrazolo[1,5-a]pyrazin-3-yl)azetidin-3-yl)oxy)benzamide]",5 to 25,5 to 25
"Cc1ccc(C(=O)Nc2cccc(CC(F)(F)F)c2)cc1OC1CN(c2cnn3ccncc23)C1 [Example 164, 4-methyl-3-((1-(pyrazolo[1,5-a]pyrazin-3-yl)azetidin-3-yl)oxy)-N-(3-(2,2,2-trifluoroethyl)phenyl)benzamide]",< 5,< 5
"Cc1ccc(C(=O)Nc2cncc(C(F)(F)F)c2)cc1OC1CN(c2cnn3ccc(N4CCN(C)CC4)nc23)C1 [Example 166, 4-methyl-3-((1-(5-(4-methylpiperazin-1-yl)pyrazolo[1,5-a]pyrimidin-3-yl)azetidin-3-yl)oxy)-N-(5-(trifluoromethyl)pyridin-3-yl)benzamide]",< 5,5 to 25
"Cc1ccc(C(=O)Nc2cncc(C(F)(F)F)c2)cc1OC1CN(c2cnn3ccc(N4CCOCC4)nc23)C1 [Example 170, 4-methyl-3-((1-(5-morpholinopyrazolo[1,5-a]pyrimidin-3-yl)azetidin-3-yl)oxy)-N-(5-(trifluoromethyl)pyridin-3-yl)benzamide]",< 5,5 to 25
"Cc1ccc(C(=O)Nc2cncc(C(F)(F)F)c2)cc1OC1CN(c2ncnc3[nH]cc(C#N)c23)C1 [Example 173, 3-((1-(5-cyano-7H-pyrrolo[2,3-d]pyrimidin-4-yl)azetidin-3-yl)oxy)-4-methyl-N-(5-(trifluoromethyl)pyridin-3-yl)benzamide]",< 5,5 to 25
"Cc1ccc(C(=O)Nc2cncc(C(F)(F)F)c2)cc1OC1CN(c2cnccc2C#N)C1 [Example 174, 3-((1-(4-cyanopyridin-3-yl)azetidin-3-yl)oxy)-4-methyl-N-(5-(trifluoromethyl)pyridin-3-yl)benzamide]",< 5,< 5
"Cc1ccc(C(=O)Nc2cncc(C(F)(F)F)c2)cc1OC1CN(c2cnn3ccc(N4CCC(CO)CC4)nc23)C1 [Example 180, 3-((1-(5-(4-(hydroxymethyl)piperidin-1-yl)pyrazolo[1,5-a]pyrimidin-3-yl)azetidin-3-yl)oxy)-4-methyl-N-(5-(trifluoromethyl)pyridin-3-yl)benzamide]",5 to 25,> 100

# — US20260028328A1, “HETEROARYL DERIVATIVES AS DDRs INHIBITORS” (CHIESI FARMACEUTICI S.P.A., priority 2022, published 2026)
